According to ChEMBL document CHEMBL1201862, “PubChem BioAssay data set” (2004):
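Assay format: 96-well plates, 48-hour exposure. GI50: concentration for 50% inhibition of growth.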 The source made the active and inactive calls. Cut-off read from the data, not from the text of the source: active = GI50 up to about 1.1 µM and inactive = higher.

What was measured:
Assay in all cases: NCI anticancer screen, dose series, 48 h
[1] = system: SK-MEL-5
[2] = system: KM12
[3] = system: NCI-H460
[4] = system: CAKI-1
[5] = system: HT-29
[6] = system: MDA-MB-435
[7] = system: MOLT-4
[8] = system: U-251
[9] = system: DU-145
[10] = system: LOX IMVI
[11] = system: OVCAR-4
[12] = system: OVCAR-5
[13] = system: UACC-257
[14] = system: OVCAR-3
[15] = system: Malme-3M
[16] = system: TK-10
[17] = system: SF-295
[18] = system: HL-60
[19] = system: HCT-116
[20] = system: 786-0

Compound	GI50 [1]	GI50 [2]	GI50 [3]	GI50 [4]	GI50 [5]	GI50 [6]	GI50 [7]	GI50 [8]	GI50 [9]	GI50 [10]	GI50 [11]	GI50 [12]	GI50 [13]	GI50 [14]	GI50 [15]	GI50 [16]	GI50 [17]	GI50 [18]	GI50 [19]	GI50 [20]
O=[N+]([O-])c1ccc(Nc2nc3ccccc3s2)cc1	21.6 µM (inactive)	51.6 µM (inactive)	29.4 µM (inactive)	> 100 µM (inactive)	34.6 µM (inactive)	37.9 µM (inactive)	8.36 µM (inactive)	17.3 µM (inactive)	69.8 µM (inactive)	14.9 µM (inactive)	43.2 µM (inactive)	23 µM (inactive)	25.8 µM (inactive)	18.7 µM (inactive)	15.9 µM (inactive)	33.7 µM (inactive)	37.6 µM (inactive)	–	–	–
CCN(CC)C(=S)N/N=C(\C)c1cccc(C)n1	0.0593 µM (active)	0.201 µM (active)	–	0.31 µM (active)	< 0.01 µM (active)	0.377 µM (active)	< 0.01 µM (active)	< 0.0431 µM (active)	0.484 µM (active)	< 0.01 µM (active)	–	2.08 µM (inactive)	< 0.01 µM (active)	< 0.01 µM (active)	0.0365 µM (active)	0.832 µM (active)	0.315 µM (active)	< 0.01 µM (active)	< 0.01 µM (active)	–
CN(C)C(=S)SCc1ccccc1	> 100 µM (inactive)	> 100 µM (inactive)	> 100 µM (inactive)	> 100 µM (inactive)	> 100 µM (inactive)	> 100 µM (inactive)	–	> 100 µM (inactive)	> 100 µM (inactive)	> 100 µM (inactive)	–	> 100 µM (inactive)	79.8 µM (inactive)	> 100 µM (inactive)	27.2 µM (inactive)	> 100 µM (inactive)	> 100 µM (inactive)	99.1 µM (inactive)	83.9 µM (inactive)	–
NC(=O)CC(/N=C1\C(=O)OC(C(O)CO)\C1=N/C(CC(N)=O)C(=O)O)C(=O)O (stereo not drawn)	> 100 µM (inactive)	> 100 µM (inactive)	> 100 µM (inactive)	> 100 µM (inactive)	> 100 µM (inactive)	> 100 µM (inactive)	> 100 µM (inactive)	> 100 µM (inactive)	> 100 µM (inactive)	–	> 100 µM (inactive)	> 10 µM (inactive)	> 100 µM (inactive)	–	> 100 µM (inactive)	> 100 µM (inactive)	> 100 µM (inactive)	> 100 µM (inactive)	> 100 µM (inactive)	> 100 µM (inactive)
CCSc1ncnc2c(C3OC(CO)C(O)C3O)nsc12 (stereo not drawn)	> 100 µM (inactive)	–	–	> 100 µM (inactive)	> 100 µM (inactive)	> 100 µM (inactive)	> 100 µM (inactive)	> 100 µM (inactive)	> 100 µM (inactive)	> 100 µM (inactive)	> 100 µM (inactive)	> 100 µM (inactive)	–	> 100 µM (inactive)	> 100 µM (inactive)	–	> 100 µM (inactive)	> 100 µM (inactive)	> 100 µM (inactive)	–
Fc1ccccc1C1SCc2nc3cc4ccccc4cc3n21 (stereo not drawn)	71.1 µM (inactive)	> 100 µM (inactive)	26.5 µM (inactive)	37 µM (inactive)	43.9 µM (inactive)	> 100 µM (inactive)	> 100 µM (inactive)	33.7 µM (inactive)	60.8 µM (inactive)	–	35.1 µM (inactive)	> 100 µM (inactive)	61.1 µM (inactive)	> 100 µM (inactive)	> 100 µM (inactive)	63.8 µM (inactive)	34.4 µM (inactive)	13.2 µM (inactive)	24.9 µM (inactive)	20.5 µM (inactive)
Cn1nc(C(=O)N2CC(CCl)c3c2cc(N)c2ccccc32)cc1NC(=O)Nc1cc(C(=O)N2CC(CCl)c3c2cc(N)c2ccccc32)nn1C (stereo not drawn)	0.192 µM (active)	0.948 µM (active)	< 0.01 µM (active)	0.254 µM (active)	0.0215 µM (active)	0.219 µM (active)	< 0.01 µM (active)	0.0212 µM (active)	0.0116 µM (active)	< 0.01 µM (active)	0.449 µM (active)	0.301 µM (active)	0.521 µM (active)	0.201 µM (active)	0.21 µM (active)	> 100 µM (inactive)	1.55 µM (inactive)	–	0.0818 µM (active)	0.0547 µM (active)
COC(=O)Cc1cc(O)c(C/C=C(\C)CC/C=C(\C)C(O)C(=O)C=C(C)C)cc1O (stereo not drawn)	17.1 µM (inactive)	20.7 µM (inactive)	20.6 µM (inactive)	–	27.4 µM (inactive)	20.6 µM (inactive)	14.5 µM (inactive)	18.7 µM (inactive)	45.4 µM (inactive)	–	40.4 µM (inactive)	33.7 µM (inactive)	30.7 µM (inactive)	19.4 µM (inactive)	17.3 µM (inactive)	–	24.2 µM (inactive)	2.76 µM (inactive)	17.3 µM (inactive)	38.6 µM (inactive)
CN1COCc2c1ccc1cc3ccc4c(c3nc21)COCN4S(C)(=O)=O	> 100 µM (inactive)	> 100 µM (inactive)	> 100 µM (inactive)	> 100 µM (inactive)	> 100 µM (inactive)	> 100 µM (inactive)	> 100 µM (inactive)	> 100 µM (inactive)	> 100 µM (inactive)	> 100 µM (inactive)	> 100 µM (inactive)	> 100 µM (inactive)	> 100 µM (inactive)	> 100 µM (inactive)	> 100 µM (inactive)	> 100 µM (inactive)	> 100 µM (inactive)	–	> 100 µM (inactive)	73.6 µM (inactive)
COc1cc(/C=C2\CCC(C)C3=C2N=c2s/c(=C/c4ccc(Cl)cc4)c(=O)n2C3c2cc(OC)c(OC)c(OC)c2)cc(OC)c1OC (stereo not drawn)	> 100 µM (inactive)	> 100 µM (inactive)	–	> 100 µM (inactive)	> 100 µM (inactive)	> 100 µM (inactive)	> 100 µM (inactive)	> 100 µM (inactive)	> 100 µM (inactive)	> 100 µM (inactive)	> 100 µM (inactive)	> 100 µM (inactive)	> 100 µM (inactive)	–	–	> 100 µM (inactive)	–	> 100 µM (inactive)	> 100 µM (inactive)	> 100 µM (inactive)
CCCCN=C(OC1C=CCCC1)SC (stereo not drawn)	> 100 µM (inactive)	–	> 10 µM (inactive)	–	> 100 µM (inactive)	> 100 µM (inactive)	> 100 µM (inactive)	> 100 µM (inactive)	> 100 µM (inactive)	–	> 100 µM (inactive)	> 100 µM (inactive)	> 100 µM (inactive)	> 100 µM (inactive)	> 100 µM (inactive)	> 100 µM (inactive)	> 100 µM (inactive)	> 100 µM (inactive)	> 100 µM (inactive)	> 100 µM (inactive)
O=C(NCCCNC(=O)c1ccc2cc(O)c(O)cc2c1)c1ccc2cc(O)c(O)cc2c1	22.8 µM (inactive)	37.9 µM (inactive)	34 µM (inactive)	> 100 µM (inactive)	23.4 µM (inactive)	32.4 µM (inactive)	30 µM (inactive)	21.9 µM (inactive)	26.7 µM (inactive)	24.2 µM (inactive)	16.7 µM (inactive)	63 µM (inactive)	36.4 µM (inactive)	–	28.6 µM (inactive)	37.9 µM (inactive)	–	19.2 µM (inactive)	37.4 µM (inactive)	–
